Reference: PubChem BioAssay (NCI)
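Compound exposure: 48 hours, 5 concentrations, 96-well plates. TGI marks complete inhibition of growth.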

Tests used:
Test in all cases: NCI-60 cell line screen, 48 h
SK-MEL-2 melanoma = tested on: SK-MEL-2 melanoma
A549 NSCLC = tested on: A549 NSCLC
KM20L2 colon = tested on: KM20L2 colon
KM12 colon = tested on: KM12 colon
OVCAR-8 ovarian = tested on: OVCAR-8 ovarian
UACC-257 melanoma = tested on: UACC-257 melanoma
MOLT-4 leukemia = tested on: MOLT-4 leukemia
TK-10 renal = tested on: TK-10 renal
EKVX NSCLC = tested on: EKVX NSCLC
DMS 114 small cell lung = tested on: DMS 114 small cell lung
OVCAR-5 ovarian = tested on: OVCAR-5 ovarian
K-562 leukemia = tested on: K-562 leukemia
U251 CNS = tested on: U251 CNS
SK-MEL-28 melanoma = tested on: SK-MEL-28 melanoma
LXFL 529 NSCLC = tested on: LXFL 529 NSCLC
SW-620 colon = tested on: SW-620 colon
RPMI-8226 leukemia = tested on: RPMI-8226 leukemia
SN12C renal = tested on: SN12C renal
SF-268 CNS = tested on: SF-268 CNS
HOP-92 NSCLC = tested on: HOP-92 NSCLC
RXF 393 renal = tested on: RXF 393 renal
HCT-116 colon = tested on: HCT-116 colon
UO-31 renal = tested on: UO-31 renal
SF-539 CNS = tested on: SF-539 CNS
SR leukemia = tested on: SR leukemia
HT29 colon = tested on: HT29 colon
786-0 renal = tested on: 786-0 renal
NCI-H23 lung = tested on: NCI-H23 lung
ACHN renal = tested on: ACHN renal
DMS 273 small cell lung = tested on: DMS 273 small cell lung
COLO 205 colon = tested on: COLO 205 colon
SF-295 CNS = tested on: SF-295 CNS
HCT-15 colon = tested on: HCT-15 colon
SNB-78 CNS = tested on: SNB-78 CNS
MALME-3M melanoma = tested on: MALME-3M melanoma
NCI-H226 lung = tested on: NCI-H226 lung
SNB-19 CNS = tested on: SNB-19 CNS
HCC-2998 colon = tested on: HCC-2998 colon
M14 melanoma = tested on: M14 melanoma
HOP-62 NSCLC = tested on: HOP-62 NSCLC
SK-MEL-5 melanoma = tested on: SK-MEL-5 melanoma
OVCAR-3 ovarian = tested on: OVCAR-3 ovarian
CAKI-1 renal = tested on: CAKI-1 renal
SNB-75 CNS = tested on: SNB-75 CNS
HL-60(TB) leukemia = tested on: HL-60(TB) leukemia
NCI-H460 lung = tested on: NCI-H460 lung
IGROV1 ovarian = tested on: IGROV1 ovarian
M19-MEL melanoma = tested on: M19-MEL melanoma
UACC-62 melanoma = tested on: UACC-62 melanoma
CCRF-CEM leukemia = tested on: CCRF-CEM leukemia

## COC(=O)c1cc(Cl)ccc1NC(=O)C1CCCCC1
SK-MEL-2 melanoma
  TGI: > 100 µM
A549 NSCLC
  TGI: > 100 µM
KM20L2 colon
  TGI: > 100 µM
KM12 colon
  TGI: > 100 µM
OVCAR-8 ovarian
  TGI: > 100 µM
UACC-257 melanoma
  TGI: > 100 µM
MOLT-4 leukemia
  TGI: > 100 µM
TK-10 renal
  TGI: > 100 µM
EKVX NSCLC
  TGI: > 100 µM
DMS 114 small cell lung
  TGI: > 100 µM
OVCAR-5 ovarian
  TGI: > 100 µM
K-562 leukemia
  TGI: > 100 µM
U251 CNS
  TGI: > 100 µM
SK-MEL-28 melanoma
  TGI: > 100 µM
LXFL 529 NSCLC
  TGI: > 100 µM
SW-620 colon
  TGI: > 100 µM
RPMI-8226 leukemia
  TGI: > 100 µM
SN12C renal
  TGI: > 100 µM
SF-268 CNS
  TGI: > 100 µM
HOP-92 NSCLC
  TGI: > 100 µM
RXF 393 renal
  TGI: > 100 µM
HCT-116 colon
  TGI: > 100 µM
UO-31 renal
  TGI: > 100 µM
SF-539 CNS
  TGI: > 100 µM
SR leukemia
  TGI: > 100 µM
HT29 colon
  TGI: > 100 µM
786-0 renal
  TGI: > 100 µM
NCI-H23 lung
  TGI: > 100 µM
ACHN renal
  TGI: > 100 µM
DMS 273 small cell lung
  TGI: > 100 µM
COLO 205 colon
  TGI: > 100 µM
SF-295 CNS
  TGI: > 100 µM
HCT-15 colon
  TGI: > 100 µM
SNB-78 CNS
  TGI: > 100 µM
MALME-3M melanoma
  TGI: > 100 µM
NCI-H226 lung
  TGI: > 100 µM
SNB-19 CNS
  TGI: > 100 µM
HCC-2998 colon
  TGI: > 100 µM

## CCOC(=O)C1=C(C)N2CCCOC2(C)C(C(=O)OC)C1c1cccc([N+](=O)[O-])c1 (stereo not given)
M14 melanoma
  TGI: > 100 µM
SK-MEL-2 melanoma
  TGI: > 100 µM
A549 NSCLC
  TGI: > 100 µM
HOP-62 NSCLC
  TGI: > 100 µM
SK-MEL-5 melanoma
  TGI: > 100 µM
OVCAR-3 ovarian
  TGI: > 100 µM
KM20L2 colon
  TGI: > 100 µM
KM12 colon
  TGI: > 100 µM
CAKI-1 renal
  TGI: > 100 µM
OVCAR-8 ovarian
  TGI: > 100 µM
UACC-257 melanoma
  TGI: > 100 µM
MOLT-4 leukemia
  TGI: > 100 µM
TK-10 renal
  TGI: > 100 µM
SNB-75 CNS
  TGI: 75.8 µM
EKVX NSCLC
  TGI: > 100 µM
DMS 114 small cell lung
  TGI: > 100 µM
K-562 leukemia
  TGI: > 100 µM
SK-MEL-28 melanoma
  TGI: > 100 µM
LXFL 529 NSCLC
  TGI: > 100 µM
HL-60(TB) leukemia
  TGI: > 100 µM
NCI-H460 lung
  TGI: > 100 µM
SW-620 colon
  TGI: > 100 µM
IGROV1 ovarian
  TGI: > 100 µM
RPMI-8226 leukemia
  TGI: > 100 µM
M19-MEL melanoma
  TGI: > 100 µM
SF-268 CNS
  TGI: > 100 µM
HOP-92 NSCLC
  TGI: > 100 µM
RXF 393 renal
  TGI: > 100 µM
HCT-116 colon
  TGI: > 100 µM
UO-31 renal
  TGI: > 100 µM
SF-539 CNS
  TGI: > 100 µM
SR leukemia
  TGI: > 100 µM
HT29 colon
  TGI: > 100 µM
NCI-H23 lung
  TGI: > 100 µM
ACHN renal
  TGI: > 100 µM
COLO 205 colon
  TGI: > 100 µM
UACC-62 melanoma
  TGI: > 100 µM
SF-295 CNS
  TGI: > 100 µM
CCRF-CEM leukemia
  TGI: > 100 µM
NCI-H226 lung
  TGI: > 100 µM
SNB-19 CNS
  TGI: > 100 µM
HCC-2998 colon
  TGI: > 100 µM
